Activity calls are given as the source filed them. No cut-off for these calls is given here.
Assays:
Rattus norvegicus [1] = assay: Anticonvulsant activity in Wistar rat assessed as protection against maximal electroshock-induced seizures at 30 mg/kg, po after 4 hrs; type: functional
Rattus norvegicus [2] = assay: Anticonvulsant activity in Wistar rat maximal electroshock-induced seizures model assessed as time spend in hind leg tonic extensor phase at 30 mg/kg, po after 1 hr relative to control; type: functional
Rattus norvegicus [3] = assay: Anticonvulsant activity in Wistar rat assessed as protection against maximal electroshock-induced seizures at 30 mg/kg, po after 2 hrs; type: functional
Mus musculus [4] = assay: Neurotoxicity in Swiss albino mouse assessed as motor impairment at 300 mg/kg, ip after 0.5 hrs by rotorod test; type: toxicity, organism-based; design: dose 300 mg/kg, route intraperitoneal; settings: in vivo
Mus musculus [5] = assay: Anticonvulsant activity in ip dosed Swiss albino mouse assessed as protection against subcutaneous pentylenetetrazole-induced seizures after 0.5 hrs; type: functional; settings: read-out: MED
Rattus norvegicus [6] = assay: Anticonvulsant activity in Wistar rat assessed as protection against maximal electroshock-induced seizures at 30 mg/kg, po after 1 hr; type: functional
Rattus norvegicus [7] = assay: Neurotoxicity in Wistar rat assessed as motor impairment at 30 mg/kg, po by rotorod test; type: toxicity, organism-based; design: dose 30 mg/kg, route oral; settings: in vivo
Mus musculus [8] = assay: Anticonvulsant activity in ip dosed Swiss albino mouse assessed as protection against subcutaneous pentylenetetrazole-induced seizures after 4 hrs; type: functional; settings: read-out: MED
Mus musculus [9] = assay: Neurotoxicity in Swiss albino mouse assessed as motor impairment at 300 mg/kg, ip after 4 hrs by rotorod test; type: toxicity, organism-based; design: dose 300 mg/kg, route intraperitoneal; settings: in vivo
Rattus norvegicus [10] = assay: Anticonvulsant activity in Wistar rat maximal electroshock-induced seizures model assessed as time spend in hind leg tonic extensor phase at 30 mg/kg, po after 0.5 hrs relative to control; type: functional
Mus musculus [11] = assay: Anticonvulsant activity in ip dosed Swiss albino mouse assessed as protection against maximal electroshock-induced seizures after 4 hrs; type: functional; settings: read-out: MED
Rattus norvegicus [12] = assay: Anticonvulsant activity in Wistar rat maximal electroshock-induced seizures model assessed as time spend in hind leg tonic extensor phase at 30 mg/kg, po after 4 hrs relative to control; type: functional
Mus musculus [13] = assay: Anticonvulsant activity in ip dosed Swiss albino mouse assessed as protection against maximal electroshock-induced seizures after 0.5 hrs; type: functional; settings: read-out: MED
Rattus norvegicus [14] = assay: Anticonvulsant activity in Wistar rat assessed as protection against maximal electroshock-induced seizures at 30 mg/kg, po after 0.5 hrs; type: functional
Rattus norvegicus [15] = assay: Anticonvulsant activity in Wistar rat maximal electroshock-induced seizures model assessed as time spend in hind leg tonic extensor phase at 30 mg/kg, po after 2 hrs relative to control; type: functional
Rattus norvegicus [16] = assay: Anticonvulsant activity in Wistar rat assessed as protection against maximal electroshock-induced seizures at 30 mg/kg, po after 0.25 hrs; type: functional
Rattus norvegicus [17] = assay: Anticonvulsant activity in Wistar rat maximal electroshock-induced seizures model assessed as time spend in hind leg tonic extensor phase at 30 mg/kg, po after 0.25 hrs relative to control; type: functional
[18] = Neurotoxicity in ip dosed Swiss albino mouse assessed as maximum tolerated dose after 4 hrs by rotorod test; type: toxicity, organism-based; settings: in vivo
Mus musculus [19] = assay: Anticonvulsant activity in Swiss albino mouse assessed as protection against maximal electroshock-induced seizures at 300 mg/kg, ip after 4 hrs; type: functional, organism-based; design: dose 300 mg/kg
Mus musculus [20] = assay: Anticonvulsant activity in Swiss albino mouse assessed as protection against subcutaneous pentylenetetrazole-induced seizures at 300 mg/kg, ip after 0.5 hrs; type: functional, organism-based; design: dose 300 mg/kg
Mus musculus [21] = assay: Anticonvulsant activity in Swiss albino mouse assessed as protection against subcutaneous pentylenetetrazole-induced seizures at 300 mg/kg, ip after 4 hrs; type: functional, organism-based; design: dose 300 mg/kg
[22] = Neurotoxicity in ip dosed Swiss albino mouse assessed as maximum tolerated dose after 0.5 hrs by rotorod test; type: toxicity, organism-based; settings: in vivo
Mus musculus [23] = assay: Anticonvulsant activity in Swiss albino mouse assessed as protection against maximal electroshock-induced seizures at 300 mg/kg, ip after 0.5 hrs; type: functional, organism-based; design: dose 300 mg/kg

Compound | Activity (Rattus norvegicus [1]) [%] | Time (Rattus norvegicus [2]) [s] | Activity (Rattus norvegicus [3]) [%] | Activity (Mus musculus [4]) | minimal effective dose (Mus musculus [5]) [mg/kg] | Activity (Rattus norvegicus [6]) [%] | Activity (Rattus norvegicus [7]) | minimal effective dose (Mus musculus [8]) [mg/kg] | Activity (Mus musculus [9]) | Time (Rattus norvegicus [10]) [s] | minimal effective dose (Mus musculus [11]) [mg/kg] | Time (Rattus norvegicus [12]) [s] | minimal effective dose (Mus musculus [13]) [mg/kg] | Activity (Rattus norvegicus [14]) [%] | Time (Rattus norvegicus [15]) [s] | Activity (Rattus norvegicus [16]) [%] | Time (Rattus norvegicus [17]) [s] | MTD at 4 h [18] [mg/kg] | Activity (Mus musculus [19]) | Activity (Mus musculus [21]) | other results
Cc1nc2c(Br)cc(Br)cc2c(=O)n1-c1ccc(NC(=O)N/N=C/c2ccc(O)cc2)cc1 | 100 | 1.25 | 100 | Non-toxic | 100 | 88 | Non-toxic | 300 | Non-toxic | 2.38 | 30 | 0 | 30 | 75 | 0 | 25 | 6.63 | – | – | – | –
Cc1nc2c(Br)cc(Br)cc2c(=O)n1-c1ccc(NC(=O)N/N=C/c2ccc([N+](=O)[O-])cc2)cc1 | – | – | – | Non-toxic | – | – | – | 300 | – | – | – | – | 100 | – | – | – | – | 300 | inactive | – | Activity (Mus musculus [20]): inactive
CN(C)c1ccc(/C=N/NC(=O)Nc2ccc(-n3c(-c4ccccc4)nc4c(Br)cc(Br)cc4c3=O)cc2)cc1 | 0 | 7.5 | 0 | Non-toxic | 100 | 38 | Non-toxic | 300 | Non-toxic | 10.75 | 300 | 11.88 | 100 | 13 | 11.63 | 0 | 12.75 | – | – | – | –
O=C1NC(=O)C(c2ccccc2)(c2ccccc2)N1 [PHENYTOIN] | 75 | 2.63 | 75 | – | – | 75 | Non-toxic | – | – | 0 | 30 | 1.38 | 30 | 100 | 1.88 | 25 | 7.13 | – | – | inactive | Activity (Mus musculus [20]): inactive
COc1cc(/C=N/NC(=O)Nc2ccc(-n3c(C)nc4c(Br)cc(Br)cc4c3=O)cc2)ccc1O | 0 | 9.5 | 0 | Non-toxic | 100 | 25 | Non-toxic | 300 | Non-toxic | 5.88 | 100 | 12.25 | 30 | 50 | 12.38 | 0 | 12.88 | – | – | – | –
Cc1nc2c(Br)cc(Br)cc2c(=O)n1-c1ccc(NC(=O)N/N=C/c2ccc(N(C)C)cc2)cc1 | 100 | 1.38 | 100 | – | 100 | 88 | Non-toxic | 300 | – | 2.88 | 30 | 0 | 30 | 75 | 0 | 25 | 8.38 | 300 | – | – | MTD at 0.5 h [22]: 300 mg/kg
Cc1nc2c(Br)cc(Br)cc2c(=O)n1-c1ccc(NC(=O)N/N=C/c2cccc([N+](=O)[O-])c2)cc1 | – | – | – | – | 300 | – | – | – | Non-toxic | – | 300 | – | 100 | – | – | – | – | – | – | inactive | MTD at 0.5 h [22]: 300 mg/kg
O=C(N/N=C/c1ccccc1)Nc1ccc(-n2c(-c3ccccc3)nc3c(Br)cc(Br)cc3c2=O)cc1 | – | – | – | – | 300 | – | – | 300 | – | – | 300 | – | 100 | – | – | – | – | 300 | – | – | MTD at 0.5 h [22]: 100 mg/kg
Cc1nc2c(Br)cc(Br)cc2c(=O)n1-c1ccc(NC(=O)N/N=C/c2ccc(Cl)cc2)cc1 | – | – | – | – | – | – | – | – | – | – | – | – | 300 | – | – | – | – | – | inactive | inactive | Activity (Mus musculus [20]): inactive
O=C(N/N=C/c1ccc(O)cc1)Nc1ccc(-n2c(-c3ccccc3)nc3c(Br)cc(Br)cc3c2=O)cc1 | 50 | 12 | 25 | Non-toxic | 300 | 0 | Non-toxic | 300 | – | 12.38 | 300 | 6.5 | 30 | 0 | 9 | 0 | 12.5 | 300 | – | – | –
O=C(N/N=C/c1ccc(Cl)cc1)Nc1ccc(-n2c(-c3ccccc3)nc3c(Br)cc(Br)cc3c2=O)cc1 | – | – | – | – | – | – | – | – | – | – | – | – | – | – | – | – | – | – | inactive | inactive | Activity (Mus musculus [20]): inactive; Activity (Mus musculus [23]): inactive
CCC1(C)CC(=O)NC1=O (configuration not stated) [ETHOSUXIMIDE] | – | – | – | Non-toxic | 100 | – | – | 300 | Non-toxic | – | – | – | – | – | – | – | – | – | inactive | – | Activity (Mus musculus [23]): inactive
Cc1nc2c(Br)cc(Br)cc2c(=O)n1-c1ccc(NC(=O)N/N=C/c2ccccc2)cc1 | – | – | – | Non-toxic | 300 | – | – | – | Non-toxic | – | 300 | – | 100 | – | – | – | – | – | – | inactive | –
COc1cc(/C=N/NC(=O)Nc2ccc(-n3c(-c4ccccc4)nc4c(Br)cc(Br)cc4c3=O)cc2)ccc1O | – | – | – | – | 300 | – | – | – | – | – | 300 | – | 100 | – | – | – | – | 300 | – | inactive | MTD at 0.5 h [22]: 100 mg/kg
O=C(N/N=C/c1cccc([N+](=O)[O-])c1)Nc1ccc(-n2c(-c3ccccc3)nc3c(Br)cc(Br)cc3c2=O)cc1 | – | – | – | – | – | – | – | 300 | – | – | – | – | – | – | – | – | – | – | inactive | – | Activity (Mus musculus [20]): inactive; Activity (Mus musculus [23]): inactive
O=C(N/N=C/c1ccc([N+](=O)[O-])cc1)Nc1ccc(-n2c(-c3ccccc3)nc3c(Br)cc(Br)cc3c2=O)cc1 | – | – | – | – | 300 | – | – | – | – | – | – | – | – | – | – | – | – | – | inactive | inactive | Activity (Mus musculus [23]): inactive
